Experimental data reported in ChEMBL document CHEMBL4627385, “Cytotoxic Monoterpenoid Indole Alkaloids from Tabernaemontana corymbosa as Potent Autophagy Inhibitors by the Attenuation of Lysosomal Acidification” (J Nat Prod, 2020).
The source made the active and inactive calls. The rule behind the calls is not given here.

Columns and labels:
Type in all cases: functional, cell-based
[1] = tested on: HL-60; assay: Cytotoxicity against human HL60 cells assessed as reduction in cell viability incubated for 48hrs by MTT assay; details: HL-60, 48 h
[2] = tested on: A549; assay: Cytotoxicity against human A549 cells assessed as reduction in cell viability incubated for 48hrs by MTT assay; details: A549, 48 h
[3] = tested on: SMMC-7721; assay: Cytotoxicity against human SMMC7721 cells assessed as reduction in cell viability incubated for 48hrs by MTT assay; details: SMMC-7721, 48 h
[4] = tested on: MCF7; assay: Cytotoxicity against human MCF7 cells assessed as reduction in cell viability incubated for 48hrs by MTT assay; details: MCF7, 48 h
[5] = tested on: SW480; assay: Cytotoxicity against human SW480 cells assessed as reduction in cell viability incubated for 48hrs by MTT assay; details: SW480, 48 h
[6] = tested on: HeLa; assay: Inhibition of lysosomal acidification in human HeLa cells incubated for 3 hrs by LysoTracker Red DND-99 staining based array scan method
[7] = tested on: HeLa; assay: Inhibition of autophagic flux in human HeLa cells harboring GFP-LC3 assessed as increase in LC3 dot accumulation incubated for 12 hrs by confocal microscopic method
[8] = tested on: HeLa; assay: Inhibition of autophagic flux in human HeLa cells assessed as increase in LC3-2 to LC3-1 ratio at 20 uM by Western blot analysis
[9] = tested on: HeLa; assay: Inhibition of autophagic flux in human HeLa cells assessed as increase in LC3-2 to LC3-1 ratio at 20 uM in presence of Bafilomycin A1 by Western blot analysis
[10] = tested on: HeLa; assay: Inhibition of autophagic flux in human HeLa cells assessed as p62 protein expression at 20 uM by Western blot analysis
[11] = tested on: HeLa; assay: Inhibition of autophagic flux in human HeLa cells assessed as inhibition of lysosomal acidification at 50 nM by Western blot analysis
[12] = tested on: HeLa; assay: Inhibition of autophagic flux in human HeLa cells assessed as increase in LC3-2 accumulation at 50 nM by Western blot analysis
[13] = tested on: HeLa; assay: Inhibition of autophagic flux in human HeLa cells assessed as increase in LC3-2 to LC3-1 ratio at 50 nM by Western blot analysis
[14] = tested on: HeLa; assay: Inhibition of autophagic flux in human HeLa cells assessed as p62 protein expression at 50 nM by Western blot analysis

| SMILES | IC50 [1] [µM] | IC50 [2] [µM] | IC50 [3] [µM] | IC50 [4] [µM] | IC50 [5] [µM] | EC50 [6] [µM] | also measured |
| --- | --- | --- | --- | --- | --- | --- | --- |
| C/C=C1/CN2COC[C@]3(C(=O)OC)[C@@H]1C[C@@H](c1c(OC)ccc4c5c([nH]c14)[C@]1(C(=O)OC)C[C@H]4C[C@H](CC)[C@@H]1N(CC5)C4=O)c1[nH]c4ccccc4c1C[C@H]23 | > 10 | > 10 | > 10 | > 10 | > 10 | > 40 | – |
| COC(=O)[C@@]12CC3C[C@H]([C@H](C)O)[C@@H]1N(C3)Cn1c2c(C=O)c2ccccc21 | > 10 | > 10 | > 10 | > 10 | > 10 | > 40 | – |
| CC[C@H]1C[C@H]2C[N@]3CCc4c([nH]c5ccc(OC)cc45)[C@](C(=O)OC)(C2)[C@H]13 | – | – | – | – | – | > 40 | – |
| COC(=O)[C@@]12C[C@@H]3CC([C@H](C)O)[C@@H]1[N@@](CC[C@]1(O)C2=Nc2ccccc21)C3 (stereo partly drawn) | – | – | – | – | – | > 40 | – |
| C/C=C1/CN2COC[C@@]3(C(=O)OC)[C@@H]1C[C@@H](c1c(OC)ccc4c5c([nH]c14)[C@]1(C(=O)OC)C[C@@H]4C[C@H](CC)[C@@H]1N(CC5)C4)c1[nH]c4ccccc4c1C[C@H]23 | – | – | – | – | – | > 40 | – |
| COC(=O)[C@@]12C[C@@H]3C[C@@H]([C@H](C)O)C1[N@@](CCc1c2[nH]c2ccccc12)C3 | – | – | – | – | – | > 40 | – |
| COC(=O)C[C@@H]1[C@@H]2C[C@H]([C@H](C)O)[C@@H]3N1CCc1c([nH]c4cc(OC)ccc14)[C@]3(C(=O)OC)C2 | > 10 | > 10 | > 10 | > 10 | > 10 | > 40 | – |
| C/C=C1/CN(C)[C@H]2Cc3c([nH]c4ccccc34)[C@H](OC)C[C@H]1[C@]2(CO)C(=O)OC | > 10 | > 10 | > 10 | > 10 | > 10 | > 40 | – |
| CC[C@H]1C[C@H]2CN3CCc4c([nH]c5cc(OC)c([C@@H]6C[C@H]7[C@@]8(C(=O)OC)CO[C@H](N(C)[C@H]8Cc8c6[nH]c6ccccc86)[C@@]76O[C@H]6C)cc45)[C@](C(=O)OC)(C2)[C@H]13 | < 10 | < 10 | < 10 | < 10 | > 10 | 20.2 | inhibition [6]: Dose-dependent effect; inhibition [7]: Active; inhibition [8]: Active; inhibition [9]: Active; inhibition [10]: Active |
| COC(=O)[C@@]12C[C@@H]3CC([C@H](C)O)[C@@H]1[N@@](CC[C@]1(O)C2=Nc2ccc(OC)cc21)C3 (stereo partly drawn) | – | – | – | – | – | > 40 | – |
| C/C=C1/CN(C)[C@H]2Cc3c([nH]c4ccccc34)[C@H](c3c(OC)ccc4c3N[C@]3(OC)[C@]5(C(=O)OC)C[C@H]6C[C@H](CC)[C@@H]5N5CC[C@@]43O[C@H]65)C[C@H]1[C@]2(CO)C(=O)OC | > 10 | > 10 | > 10 | > 10 | > 10 | > 40 | – |
| C/C=C1/CN2COC[C@]3(C(=O)OC)[C@@H]1C[C@@H](c1c(OC)ccc4c1N=C1[C@]5(C(=O)OC)C[C@@H]6C[C@H](CC)[C@@H]5N(CC[C@]14O)C6)c1[nH]c4ccccc4c1C[C@H]23 | – | – | – | – | – | > 40 | – |
| CC[C@H]1C[C@]2(C(=O)OC)CN3CC[C@@]4(O)C(=Nc5cc(OC)c([C@@H]6C[C@H]7[C@@]8(C(=O)OC)CO[C@H](N(C)[C@H]8Cc8c6[nH]c6ccccc86)[C@@]76O[C@H]6C)cc54)[C@](C(=O)OC)(C2)[C@H]13 | – | – | – | – | – | 12.9 | inhibition [6]: Dose-dependent effect; inhibition [7]: Active; inhibition [8]: Active; inhibition [9]: Active; inhibition [10]: Active |
| COC(=O)C[C@@H]1[C@@H]2C[C@H]([C@H](C)O)[C@@H]3N1CCc1c([nH]c4ccc(OC)cc14)[C@]3(C(=O)OC)C2 | > 10 | > 10 | > 10 | > 10 | > 10 | > 40 | – |
| C/C=C1/CN(C)[C@H]2Cc3c([nH]c4ccccc34)[C@H](c3cc4c(cc3OC)N=C3[C@]5(C(=O)OC)C[C@]6(C(=O)OC)C[C@H](CC)[C@@H]5N(CC[C@@]34O)C6)C[C@H]1[C@]2(CO)C(=O)OC | – | – | – | – | – | 25.7 | inhibition [6]: Dose-dependent effect |
| CCN(CC)CCCC(C)Nc1ccnc2cc(Cl)ccc12 (stereo not drawn) [CHLOROQUINE] | – | – | – | – | – | 19.6 | – |
| C/C=C1/CN2COC[C@@]3(C(=O)OC)[C@@H]1C[C@H](c1cc4c5c([nH]c4cc1OC)[C@]1(C(=O)OC)C[C@@H]4C[C@H](CC)[C@@H]1N(CC5)C4)c1[nH]c4ccccc4c1C[C@H]23 | 3.2 | 8.6 | 4.7 | 4 | 3.5 | 29.8 | inhibition [6]: Dose-dependent effect |
| CO/C1=C\C(C)=C\[C@@H](C)[C@@H](O)[C@@H](C)C/C(C)=C/C=C/[C@H](OC)[C@@H]([C@@H](C)[C@@H](O)[C@H](C)[C@@]2(O)C[C@@H](O)[C@H](C)[C@@H](C(C)C)O2)OC1=O | – | – | – | – | – | – | inhibition [11]: Active; inhibition [12]: Active; inhibition [13]: Active; inhibition [14]: Active |
| C/C=C1/CN(C)[C@H]2Cc3c([nH]c4ccccc34)[C@H](c3c(OC)ccc4c3N=C3[C@]5(C(=O)OC)C[C@@H]6C[C@H](CC)[C@@H]5N(CC[C@]34O)C6)C[C@H]1[C@]2(CO)C(=O)OC | – | – | – | – | – | > 40 | – |
| CC[C@H]1C[C@@H]2CN3CCc4c([nH]c5cc(OC)c([C@@H]6C[C@H]7C(C(=O)OC)[C@H](Cc8c6[nH]c6ccccc86)N(C)C[C@H]7CC)cc45)[C@](C(=O)OC)(C2)[C@H]13 (stereo partly drawn) | – | – | – | – | – | 16 | inhibition [6]: Dose-dependent effect |
| C/C=C1/CN(C)[C@H]2Cc3c([nH]c4ccccc34)[C@H](c3c(OC)ccc4c5c([nH]c34)[C@]3(C(=O)OC)C[C@H]4C[C@H](CC)[C@@H]3N(C4)C[C@H]5OC)C[C@H]1[C@]2(CO)C(=O)OC | > 10 | > 10 | > 10 | > 10 | > 10 | > 40 | – |
| CC[C@H]1C[C@@H]2CN3CCc4c([nH]c5ccccc45)[C@](C(=O)OC)(C2)[C@H]13 [CORONARIDINE] | – | – | – | – | – | > 40 | – |
| CC[C@H]1C[C@@H]2CN3CCc4c([nH]c5cc(OC)ccc45)[C@](C(=O)OC)(C2)[C@H]13 [ISOVOACANGINE] | – | – | – | – | – | > 40 | – |
| COC(=O)[C@@]12C[C@@H]3C[C@H]([C@H](C)O)C1[N@@](CCc1c2[nH]c2ccccc12)C3 | – | – | – | – | – | > 40 | – |
| CC[C@H]1C[C@H]2CN3CC[C@@]4(O)C(=Nc5cc(OC)ccc54)[C@](C(=O)OC)(C2)[C@H]13 | > 10 | > 10 | > 10 | > 10 | 7.5 | > 40 | – |
| CC[C@H]1C[C@H]2C[C@@]3(C(=O)OC)c4[nH]c5ccccc5c4CC[N@@](C2CC(C)=O)[C@@H]13 (stereo partly drawn) | – | – | – | – | – | > 40 | – |
| CC[C@H]1C[C@H]2C[C@@]3(C(=O)OC)c4[nH]c5cc(OC)ccc5c4CC[N@@](C2CC(C)=O)[C@@H]13 (stereo partly drawn) | – | – | – | – | – | > 40 | – |
